Like-named read-outs stand apart in the source and are kept apart here.
Tests used:
Format in all cases: biochemical
[1] = biological target: T1, Dopamine (DA) uptake (Rattus norvegicus, UniProt P23977); experiment: Dopamine (DA) uptake inhibitory activity using rat brain synaptosome (corpus striatum); conditions: tritium-labeled DA 2 nM, 37° C. ten minutes, read-out: 50% Inhibitory concentration
T1 construct: The suspension was used as a crude synaptosome fraction; from tissue; host or cells: rat (male Wistar) corpus striatum, crude synaptosome fraction
Procedure: Measurement of Dopamine (DA) Uptake Inhibitory Activity of Test Compound Using Rat Brain Synaptosome
(§1) Male Wistar rats were decapitated, and their brains were removed and dissected to remove the corpus striatum. The separated corpus striatum was placed in a 20-fold weight of a 0.32 molarity (M) sucrose solution and homogenized with a potter homogenizer. The homogenate was centrifuged at 1000 g at 4° C. for 10 minutes, and the supernatant was further centrifuged at 20000 g at 4° C. for 20 minutes. […] The suspension was used as a crude synaptosome fraction.
Uptake reaction was performed using each well of a 96-well round-bottom plate and a 200 μl volume in total of a solution containing pargyline (final concentration: 10 μM) and ascorbic acid (final concentration: 0.2 mg/mil).
(§2) Specifically, a solvent, unlabeled DA, and serially diluted test compounds were separately added to the wells, and the synaptosome fraction was added in an amount 1/10 of the final volume to each well and preincubated at 37° C. for 10 minutes. Then, a tritium-labeled DA solution (final concentration: 2 nM) was added thereto to initiate uptake reaction at 37° C. Ten minutes later, the uptake reaction was terminated by suction filtration through a 96-well glass fiber filter plate. Furthermore, the filter was washed with a cold saline and then sufficiently dried. MicroScint-O (PerkinElmer Co., Ltd.) was added thereto, and the residual radioactivity on the filter was measured.
(§3) An uptake value obtained by the addition of only the solvent was defined as 100%, and an uptake value (nonspecific uptake value) obtained by the addition of the unlabeled DA (final concentration: 10 μM) was defined as 0%. A 50% inhibitory concentration was calculated from the test compound concentrations and inhibitory activities thereat.

[2] = biological target: Norepinephrine (NE) uptake (Rattus norvegicus, UniProt Q9WTR4); experiment: Norepinephrine (NE) uptake inhibitory activity using rat brain synaptosome (hippocampus)
Procedure: Measurement of Norepinephrine (NE) Uptake Inhibitory Activity of Test Compound Using Rat Brain Synaptosome
Male Wistar rats were decapitated, and their brains were removed and dissected to remove the hippocampus. The separated hippocampus was placed in a 20-fold weight of a 0.32 molarity (M) sucrose solution and homogenized with a potter homogenizer. The homogenate was centrifuged at 1000 g at 4° C. for 10 minutes, and the supernatant was further centrifuged at 20000 g at 4° C. for 20 minutes. The pellet was suspended in an incubation buffer (20 mM HEPES buffer (pH 7.4) containing 10 mM glucose, 145 mM sodium chloride, 4.5 mM potassium chloride, 1.2 mM magnesium chloride, and 1.5 mM calcium chloride). The suspension was used as a crude synaptosome fraction.
(§4) Uptake reaction was performed using each well of a 96-well round-bottom plate and a 200 μl volume in total of a solution containing pargyline (final concentration: 10 μM) and ascorbic acid (final concentration: 0.2 mg/ml).
as §2, with “NE,” for “DA,”, “NE” for “DA”, “12” for “2”
as §3, with “NE” for “DA”

[3] = biological target: T2, Serotonin (5-HT) uptake (Rattus norvegicus, UniProt P31652); experiment: Serotonin (5-HT) uptake inhibitory activity using rat brain synaptosome (frontal cortex); conditions: tritium-labeled 5-HT 8 nM, 37° C. 10 minutes
T2 construct: The suspension was used as a crude synaptosome fraction; from tissue; host or cells: rat (male Wistar) frontal cortex, crude synaptosome fraction
Procedure: Measurement of Serotonin (5-HT) Uptake Inhibitory Activity of Test Compound Using Rat Brain Synaptosome
as §1, with “frontal cortex.” for “corpus striatum.”, “frontal cortex” for “corpus striatum”
as §4
as §2, with “5-HT,” for “DA,”, “5-HT” for “DA”, “8” for “2”, “10” for “Ten”
as §3, with “5-HT” for “DA”, “50%,” for “50%”

[4] = tritium-labeled NE 12 nM, 37° C. ten minutes, read-out: 50% inhibitory concentration
[5] = read-out: 50% Inhibitory concentration

T2 sequence (P31652 whole entry): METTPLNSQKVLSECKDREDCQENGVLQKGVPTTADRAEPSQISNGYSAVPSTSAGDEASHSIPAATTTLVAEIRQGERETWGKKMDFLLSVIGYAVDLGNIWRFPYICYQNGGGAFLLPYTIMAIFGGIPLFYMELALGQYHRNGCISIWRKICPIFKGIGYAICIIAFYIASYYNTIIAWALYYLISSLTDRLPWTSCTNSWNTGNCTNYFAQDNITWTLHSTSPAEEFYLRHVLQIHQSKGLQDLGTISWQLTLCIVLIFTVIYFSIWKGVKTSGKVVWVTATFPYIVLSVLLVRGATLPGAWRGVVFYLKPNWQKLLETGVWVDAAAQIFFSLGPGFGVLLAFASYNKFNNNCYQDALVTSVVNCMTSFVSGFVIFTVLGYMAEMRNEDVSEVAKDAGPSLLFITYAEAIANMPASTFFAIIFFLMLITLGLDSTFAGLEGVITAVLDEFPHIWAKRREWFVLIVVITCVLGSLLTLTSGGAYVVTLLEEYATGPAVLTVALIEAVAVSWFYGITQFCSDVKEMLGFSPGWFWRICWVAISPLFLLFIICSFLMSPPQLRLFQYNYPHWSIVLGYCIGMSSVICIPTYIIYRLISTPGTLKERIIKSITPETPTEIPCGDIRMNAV
T1 sequence (P23977 whole entry): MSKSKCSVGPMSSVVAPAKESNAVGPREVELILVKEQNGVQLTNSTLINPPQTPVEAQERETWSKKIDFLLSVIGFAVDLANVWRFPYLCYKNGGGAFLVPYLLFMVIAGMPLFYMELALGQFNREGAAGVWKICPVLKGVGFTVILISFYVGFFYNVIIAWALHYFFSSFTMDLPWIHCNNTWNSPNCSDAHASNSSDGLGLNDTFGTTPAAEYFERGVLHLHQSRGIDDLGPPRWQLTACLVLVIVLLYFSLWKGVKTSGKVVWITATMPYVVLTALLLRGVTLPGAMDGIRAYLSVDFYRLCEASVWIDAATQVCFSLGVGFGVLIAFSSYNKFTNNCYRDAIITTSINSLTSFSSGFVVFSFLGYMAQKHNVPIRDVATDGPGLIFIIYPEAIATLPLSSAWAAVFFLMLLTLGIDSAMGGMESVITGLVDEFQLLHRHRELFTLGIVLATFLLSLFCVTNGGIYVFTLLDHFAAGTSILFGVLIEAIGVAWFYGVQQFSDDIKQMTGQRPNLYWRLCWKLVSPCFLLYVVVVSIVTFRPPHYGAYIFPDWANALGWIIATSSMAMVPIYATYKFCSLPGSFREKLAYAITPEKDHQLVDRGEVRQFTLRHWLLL

SMILES	IC50 [1]	IC50 [2, 4]	IC50 [3, 5]	IC50 ([2]; read-out: 50% inhibitory concentration, tritium-labeled NE 12 nM, 37° C. ten minutes)	IC50 ([3]; 50% Inhibitory concentration)
CC1(C)CN(c2ccc(F)c3c2CCC3)[C@H]2CCCC[C@H]2N1 [Example 791]	161 nM	0.7 nM	1.4 nM	–	–
CC1(C)CN(c2cccc3[nH]ccc23)[C@@H]2CCCC[C@@H]2N1 [Example 85]	95.7 nM	4.9 nM	7.2 nM	–	–
CC1(C)CN(c2cccc3[nH]ncc23)[C@H]2CCCC[C@H]2N1 [Example 778]	4.9 nM	4.2 nM	87.5 nM	–	–
CC1(C)CN(c2ccc3sccc3c2)C2COCC2N1 (stereo not drawn) [Example 8]	378 nM	60.9 nM	2.4 nM	–	–
CC1(C)CCN(c2ccc(Cl)c(Cl)c2)[C@@H]2CCCC[C@@H]2N1 (relative stereo) [Example 322]	67.7 nM	40.1 nM	9.6 nM	–	–
CC1(C)CN(c2csc3ccccc23)[C@H]2CCCC[C@H]2N1 [Example 841]	5.1 nM	0.9 nM	28.1 nM	–	–
CC1(C)CN(c2ccc3occc3c2)[C@H]2CCCC[C@@H]2N1 [Example 196]	18.3 nM	1.7 nM	4.4 nM	–	–
C[C@@H]1CN(c2ccc3ncsc3c2)[C@H]2CCCC[C@@H]2N1 [Example 1326]	91.8 nM	1.8 nM	37.8 nM	–	–
C[C@@H]1CN(c2ccc(OC(F)F)c(F)c2)[C@H]2CCCC[C@@H]2N1 [Example 1534]	215 nM	–	–	4 nM	38.1 nM
CC1(C)CN(c2ccc(F)c3[nH]ccc23)[C@H]2CCCC[C@H]2N1 [Example 780]	4.3 nM	0.6 nM	6.5 nM	–	–
CC1(C)CN(c2ccc(Cl)c(Cl)c2)[C@H]2CCCC[C@@H]2N1 [Example 246]	8.8 nM	3.8 nM	6.8 nM	–	–
C[C@@H]1CN(c2ccc(F)c3ccccc23)[C@H]2CCCC[C@@H]2N1 [Example 1318]	83.5 nM	6.6 nM	40.7 nM	–	–
CC1(C)CN(c2cccc3occc23)[C@@H]2CCCC[C@@H]2N1 (relative stereo) [Example 33]	15.1 nM	0.7 nM	2.6 nM	–	–
CC1(C)CN(c2ccc3[nH]c(C#N)cc3c2)[C@H]2CCCC[C@H]2N1 [Example 781]	5.2 nM	3 nM	6.2 nM	–	–
CC1(C)CN(c2ccc3[nH]c(C#N)cc3c2)[C@@H]2CCCC[C@H]2N1 [Example 993]	38.6 nM	8.7 nM	4.8 nM	–	–
OCCN1CCN(c2ccc(Cl)c(Cl)c2)[C@H]2CCCC[C@@H]21 (relative stereo) [Example 300]	81.3 nM	9.9 nM	89.1 nM	–	–
Clc1ccc(N2CCN[C@H]3CCCC[C@@H]32)c2ccoc12 [Example 1083]	53.7 nM	2.5 nM	5.1 nM	–	–
CC1(C)CN(c2csc3ccccc23)[C@@H]2CCCC[C@@H]2N1 [Example 577]	47.9 nM	5.9 nM	5.2 nM	–	–
COc1cc2ccc(N3CC(C)(C)N[C@H]4CCCC[C@H]43)cc2cc1C#N [Example 610]	13.2 nM	5.9 nM	4.6 nM	–	–
CC1(C)CN(c2cccc3occc23)[C@H]2CCCC[C@@H]2N1 [Example 191]	13.5 nM	2.1 nM	3.2 nM	–	–
CC1(C)CN(c2ccc3[nH]c(C#N)cc3c2)[C@@H]2CCCC[C@@H]2N1 [Example 654]	9 nM	1 nM	1.5 nM	–	–
C[C@@H]1CN(c2ccc3sccc3c2)[C@H]2CCCC[C@@H]2N1 (relative stereo) [Example 285]	43.9 nM	1.4 nM	19.7 nM	–	–
CC1(C)CN(c2ccccc2Cl)[C@H]2CCCC[C@H]2N1 [Example 165]	6.8 nM	2.4 nM	12 nM	–	–
CC1(C)CN(c2ccc3cc(C#N)oc3c2)[C@@H]2CCCC[C@@H]2N1 [Example 641]	9.7 nM	76 nM	2.2 nM	–	–
